Legend:
Assay type in all cases: cell-based
EEA1 / HPV16 L1 = test: Proximity ligation assay for L1 and EEA1 in peptide-treated infected cells; settings: 14 μM
Method: (§1) HeLa-S3 cells grown on glass coverslips for 16 hours were incubated for one hour with or without 14 μM P16/16, followed by mock-infection or infection with HPV16 PSV at MOI of 200. 8 and 16 h.p.i., cells were processed for PLA with anti-L1 antibody and an antibody recognizing EEA1 (FIG. 20A) or TGN46 (FIG. 20B). PLA was performed as in FIG. 19B. The PLA signal for EEA1/L1 was normalized to that of cells infected with HPV16 PsV in the absence of peptide at 8 h.p.i., while the TGN46/L1 signal was normalized to untreated cells at 16 h.p.i.
(§2) For the proximity ligation assay, after an hour incubation with peptides, HeLa-S3 cells were infected with wild-type PSV at MOI of 200 or mutant PsV containing the same number of reporter plasmid genomes. Infected cells were fixed at 8 or 16 h.p.i., permeabilized, and incubated with 1:100 dilutions of anti-L1 antibody and an antibody recognizing EEA1, TGN46, or VPS35. […] The nuclei were stained by using Abcam fluorescence mounting medium with DAPI and images were acquired by a Leica SP5 inverted fluorescence microscope. […] The images were processed by Fiji and quantitatively analyzed by BlobFinder software to measure total fluorescence intensity in each sample. The average fluorescence intensity per cell in each sample was normalized to the control sample as indicated in each experiment. […]

HPV18 PsV = test: Peptide inhibition of HPV18 PsV infection of HeLa-S3 cells, flow cytometry for HcRed; settings: 14 μM peptide, MOI of one, 48 h.p.i.
Source text: (§3) FIG. 18A (top) depicts sequences of L2 peptides. […] Amino acid substitutions in the CPP or RBS mutant peptides are shown in orange and blue, respectively. Bottom: RBS and flanking sequences of indicated HPV L2 proteins or DMT1-II. FIG. 18B depicts an inhibitory dose-response curve for P16/16 peptide. 5×10^4 HeLa-S3 in 24-well plates were pretreated with various concentrations of P16/16 for one hour prior to infection with HPV pseudovirus (PsV) at multiplicity of infection (MOI) of 1. Peptide was left in the medium for the duration of the experiment. Cells were assessed by flow cytometry to determine the fraction of cells expressing reporter protein HcRed at 48 hours post-infection (h.p.i.). […] Forty-eight h.p.i., cells were assessed by flow cytometry to determine fraction of cells expressing reporter protein HcRed. […] HaCaT keratinocytes were infected at MOI of 1 with HPV16 PsV in the presence and absence of 14 μM P16/16, and infectivity was assessed 48 h.p.i. by flow cytometry for HcRed fluorescence. […] Successful infection by HPV16 and HPV16 PsV was assessed by quantitative reverse transcription-PCR (qRT-PCR) for expression of HPV early region and HcRed mRNA, respectively, and normalized to infection by the cognate virus in the absence of peptide. Background signal determined with non-cognate primers was <0.01%. […]

TGN46 / HPV16 L1 = test: Proximity ligation assay for L1 and TGN46 in peptide-treated infected cells; settings: 14 μM, MOI of 200, 16 h.p.i.
Method: as §1, §2

HPV5 PsV = test: Peptide inhibition of HPV5 PsV infection of HeLa-S3 cells, flow cytometry for HcRed; settings: 14 μM peptide, MOI of one, 48 h.p.i.
Source text: as §3

[1] = system: HPV16 PsV containing GFP11-tagged L2; test: Split GFP assay with peptide, HaCaT/GFP1-10NES cells; settings: 30 μM, MOI of 2000, three h.p.i.
Method: FIG. 26A depicts clonal HaCaT/GFP1-10NES cells expressing cytosolic GFP1-10 infected at MOI of 2000 with untagged HPV16 or with HPV16 PsV containing GFP11-tagged L2 in the absence or presence of 30 μM P16/16. Three h.p.i., cells were stained with Hoescht 33342 to visualize nuclei (blue) and examined by confocal microscopy for GFP fluorescence. FIG. 26B the corrected total cellular fluorescence (CTCF) of each cell was calculated and plotted in arbitrary units from three independent experiments. n.s., not significant. FIG. 26C depicts HaCaT/GFP-10NES cells infected as described in FIG. 26A with wild-type HPV16 PsV in the presence of 30 μM P16/16 or in its absence for three hours, followed by removal of PsV and incubation with medium containing peptide for an additional 48 hours. Cells were assessed by flow cytometry to determine reporter protein expression. Infectivity was normalized with that in the absence of peptide. **, p<0.01.
To determine if the cytoplasmic protrusion of L2 of PsV is inhibited by peptides, the split GFP assay was performed. 3×104 clonal HaCaT/GFP1-10NES expressing GFP1-10NES in the cytoplasm were seeded in eight-chambered glass slides and incubated with peptides for an hour prior to infection at MOI of ˜2000 with HPV16 PsV containing wild-type L2 or L2 containing inserted GFP11. […]

CC[C@H](C)[C@H](NC(=O)[C@@H](NC(=O)[C@H](Cc1ccc(O)cc1)NC(=O)[C@H](CCC(N)=O)NC(=O)[C@@H]1CCCN1C(=O)[C@H](CO)NC(=O)[C@@H](N)CS)[C@@H](C)O)C(=O)N[C@H](C(=O)N[C@@H](C)C(=O)N[C@@H](CC(=O)O)C(=O)N[C@@H](C)C(=O)NCC(=O)N[C@@H](CC(=O)O)C(=O)N[C@@H](Cc1ccccc1)C(=O)N[C@@H](Cc1ccc(O)cc1)C(=O)N[C@@H](CC(C)C)C(=O)N[C@@H](Cc1c[nH]cn1)C(=O)N1CCC[C@H]1C(=O)N[C@@H](CO)C(=O)N[C@@H](Cc1ccc(O)cc1)C(=O)N[C@@H](Cc1ccc(O)cc1)C(=O)N[C@@H](CCSC)C(=O)N[C@@H](CC(C)C)C(=O)N[C@@H](CCCNC(=N)N)C(=O)N[C@@H](CCCCN)C(=O)N[C@@H](CCCNC(=N)N)C(=O)N[C@@H](CCCNC(=N)N)C(=O)N[C@@H](CCCCN)C(=O)N[C@@H](CCCNC(=N)N)C(=O)O)[C@@H](C)CC [P16/16]
EEA1/L1 PLA at 8 h.p.i. (EEA1 / HPV16 L1; MOI of 200, 8 h.p.i.): arrival of HPV at the endosome regardless of the presence of the peptide | EEA1/L1 PLA at 16 h.p.i. (EEA1 / HPV16 L1; MOI of 200, 16 h.p.i.): striking accumulation of the virus in the endosome | inhibition of HPV18 PsV infection (HPV18 PsV): potently inhibited infection | TGN46/L1 PLA at 16 h.p.i. (TGN46 / HPV16 L1): inhibited the arrival of HPV in the TGN | inhibition of HPV5 PsV infection (HPV5 PsV): potently inhibited infection | protrusion of L2 C terminus into the cytoplasm (reconstituted GFP) [1]: did not inhibit protrusion of the C terminus of the L2 protein into the cytoplasm

Source: US12060388B2, “Cell-penetrating peptides and methods of use thereof” (priority 2018, dated 2024)
